Results: patent US20220000998A1 (priority 2019, published 2022)
No end group written: not given here.

What was measured:
[1] = mouse, plasma
B3Z T-cells = format: cell-based, murine

FIGITELKKLESKINKVFAVGALKVPRNQDWLGVPRQL [UU-30]
half-life [1]: 20 min

FIGITELKKLESKINKVFLEQLESIINFEKLAAAAAK [UU-05]
T-cell activation after BMDC incubation with antibody constructs and the peptide (B3Z T-cells): resulted in T-cell activation

LEQLESIINFEKLAAAAAK [UU-10, reference compound]
T-cell activation after BMDC incubation with antibody constructs and the peptide (B3Z T-cells): did not give rise to T-cell activation
